The target in test [1] is GDP-bound NRAS wild-type protein (Homo sapiens, UniProt P01111). The experiment in a line: Binding to NRAS by surface plasmon resonance (SPR), Single Cycle Kinetics. The conditions noted are these: SPR; for NRAS/KRAS (ratio of KD value with respect to NRAS to KD value with respect to KRAS) / NRAS/KRAS (ratio of KD value for NRAS to KD value for KRAS): GDP-bound NRAS wild-type vs GDP-bound KRAS wild-type.

Test [2] concerns the target GDP-bound HRAS wild-type protein (Homo sapiens, UniProt P01112). The experiment in a line: Binding to HRAS by surface plasmon resonance (SPR), Single Cycle Kinetics. The conditions noted are these: SPR; for HRAS/KRAS (ratio of KD value with respect to HRAS to KD value with respect to KRAS) / HRAS/KRAS (ratio of KD value for HRAS to KD value for KRAS): GDP-bound HRAS wild-type vs GDP-bound KRAS wild-type.

Structures are written as SMILES. Where a SMILES comes first, the peptide text is derived from it. Bridges are numbered along the chain shown (N, C = ends). [ ]: non-standard residue; d: D form. The star is where a group is joined. hPhe(3,5-F2-4-CF3) = N[C@@H](CCc1cc(F)c(C(F)(F)F)c(F)c1)C(=O)O; hPhe(3-Cl-4-CF3) = N[C@@H](CCc1ccc(C(F)(F)F)c(Cl)c1)C(=O)O; NPrPhe(4-CF3) = CCCN[C@@H](Cc1ccc(C(F)(F)F)cc1)C(=O)O; NEtPhe(4-Me) = CCN[C@@H](Cc1ccc(C)cc1)C(=O)O; NMeGly(cPent) = CN[C@H](C(=O)O)C1CCCC1; Hyp = O=C(O)[C@@H]1C[C@@H](O)CN1; NMeD = CN[C@@H](CC(=O)O)C(=O)O; NMeL = CN[C@@H](CC(C)C)C(=O)O; Morpholide = C1CN(*)CCO1; NMeA = CN[C@@H](C)C(=O)O; Ac5c = NC1(C(=O)O)CCCC1; Aze = O=C(O)[C@@H]1CCN1; X45 = C1CCC(*)OC1; Sar = CNCC(=O)O

GDP-bound NRAS wild-type protein, sequence (P01111 whole entry): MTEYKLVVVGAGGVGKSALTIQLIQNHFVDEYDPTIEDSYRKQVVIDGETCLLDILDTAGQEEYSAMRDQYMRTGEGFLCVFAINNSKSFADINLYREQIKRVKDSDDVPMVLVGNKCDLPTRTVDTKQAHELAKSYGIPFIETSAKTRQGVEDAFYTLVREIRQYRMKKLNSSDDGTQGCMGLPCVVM
GDP-bound HRAS wild-type protein, sequence (P01112 whole entry): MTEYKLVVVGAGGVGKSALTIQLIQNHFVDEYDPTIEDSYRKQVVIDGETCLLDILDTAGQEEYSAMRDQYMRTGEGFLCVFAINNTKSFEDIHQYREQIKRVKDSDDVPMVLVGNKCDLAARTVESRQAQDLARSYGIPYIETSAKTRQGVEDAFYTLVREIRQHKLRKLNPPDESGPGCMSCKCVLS

Consider `CCCN1C(=O)CN(C)C(=O)CN(C)C(=O)[C@H]([C@@H](C)CC)NC(=O)[C@H](CC(C)C)N(C)C(=O)C[C@@H](C(=O)N(C)C)N(C)C(=O)[C@H](C2CCCC2)N(C)C(=O)C2(CCCC2)NC(=O)[C@@H]2CCCN2C(=O)[C@H](CCc2cc(F)c(C(F)(F)F)c(F)c2)NC(=O)CN(C)C(=O)[C@@H]1Cc1ccc(C(F)(F)F)cc1` [PP0788] ([NMeL]I[Sar][Sar][NPrPhe(4-CF3)][Sar][hPhe(3,5-F2-4-CF3)]P[Ac5c][NMeGly(cPent)][NMeD]-NMe2; lactam N-11), for which the “NRAS/KRAS (ratio of KD value with respect to GDP-bound NRAS wild-type protein to KD value with respect to KRAS)” value in test [1] (KD ratio NRAS/KRAS) was “B (a compound having 3 or more and less than 10 is denoted as B)”. In test [2] (KD ratio HRAS/KRAS), the “HRAS/KRAS (ratio of KD value with respect to GDP-bound HRAS wild-type protein to KD value with respect to KRAS)” value was “C (A compound having a KD ratio of 0.1 or more and less than 3 is denoted as C)”.
As for `CC[C@H](C)[C@@H]1NC(=O)[C@H](CC(C)C)N(C)C(=O)C[C@@H](C(=O)N2CCOCC2)N(C)C(=O)[C@H](C2CCCC2)N(C)C(=O)C2(CCCC2)NC(=O)[C@@H]2C[C@@H](OC3CCCCO3)CN2C(=O)[C@H](CCc2ccc(C(F)(F)F)c(Cl)c2)NC(=O)CN(C)C(=O)[C@H](Cc2ccc(C)cc2)N(CC)C(=O)[C@@H]2CCN2C(=O)[C@H](C)N(C)C1=O` (some centres unmarked) [PP0067] ([NMeL]I[NMeA][Aze][NEtPhe(4-Me)][Sar][hPhe(3-Cl-4-CF3)][Hyp](X45)[Ac5c][NMeGly(cPent)][NMeD]-Morpholide; lactam N-11), the “NRAS/KRAS (ratio of KD for GDP-bound NRAS wild-type to KD for KRAS)” value in test [1] (KD ratio NRAS/KRAS) is “C (A compound having a KD ratio of 0.1 or more and less than 3 is denoted as C)”. Further, the “HRAS/KRAS (ratio of KD for GDP-bound HRAS wild-type to KD for KRAS)” value in test [2] (KD ratio HRAS/KRAS) is “C (A compound having a KD ratio of 0.1 or more and less than 3 is denoted as C)”.
Take `CC[C@H](C)[C@@H]1NC(=O)[C@H](CC)N(C)C(=O)C[C@@H](C(=O)N(C)C)N(C)C(=O)[C@H](C2CCCC2)N(C)C(=O)C2(CCC2)NC(=O)[C@H](COC)N(C)C(=O)[C@H](CCc2cc(F)c(C(F)(F)F)c(F)c2)NC(=O)CN(C)C(=O)[C@H](Cc2ccc(C(F)(F)F)cc2)N2CC/C=C\C[C@@H](C2=O)N(C)C(=O)CN(C)C1=O` [PP1145]: the “NRAS/KRAS (ratio of KD value with respect to NRAS to KD value with respect to KRAS)” value in test [1] (KD ratio) was “A (a compound having 10 or more and less than 20 is denoted as A)”. The “HRAS/KRAS (ratio of KD value with respect to HRAS to KD value with respect to KRAS)” value in test [2] (KD ratio) is “B (a compound having 3 or more and less than 10 is denoted as B)”.
As for `CCOC[C@H]1C(=O)N[C@@H]([C@@H](C)CC)C(=O)N2CCC[C@H]2C(=O)N(C)[C@H]2C/C=C\CCN(C2=O)[C@@H](Cc2ccc(C(F)(F)F)cc2)C(=O)N(C)CC(=O)N[C@@H](CCc2ccc(C(F)(F)F)c(OC)c2)C(=O)N2C[C@@H](C)C[C@H]2C(=O)N(C)C2(CCC2)C(=O)N(C)[C@@H](C2CCCC2)C(=O)N(C)[C@H](C(=O)N(C)C)CC(=O)N1C` [PP2363], the “NRAS/KRAS (ratio of KD value with respect to NRAS to KD value with respect to KRAS)” value in test [1] was “A (a compound having 10 or more and less than 20 is denoted as A)”. In addition, the “HRAS/KRAS (ratio of KD value with respect to HRAS to KD value with respect to KRAS)” value in test [2] is “B (a compound having 3 or more and less than 10 is denoted as B)”.
As to `C=CCCC[C@H]1C(=O)N[C@@H]([C@@H](C)CC)C(=O)N(C)CC(=O)N(C)[C@H]2CCCCCN(C2=O)[C@@H](Cc2ccc(C(F)(F)F)cc2)C(=O)N(C)CC(=O)N[C@@H](CCc2cc(F)c(C(F)(F)F)c(F)c2)C(=O)N2C[C@H](OCC)C[C@H]2C(=O)N[C@](C)(CC=C)C(=O)N(C)[C@@H](C2CCCC2)C(=O)N(C)[C@H](C(=O)N2CCOCC2)CC(=O)N1C` [PP0880], the “NRAS/KRAS (ratio of KD value with respect to NRAS to KD value with respect to KRAS)” value in test [1] (KD ratio) is “B (a compound having 3 or more and less than 10 is denoted as B)”. For the same molecule, in test [2] (KD ratio), the “HRAS/KRAS (ratio of KD value with respect to HRAS to KD value with respect to KRAS)” value was “B (a compound having 3 or more and less than 10 is denoted as B)”.
On to `CCO[C@@H]1C[C@H]2C(=O)NC3(CC(C)(C)C3)C(=O)N(C)[C@@H](C3CCCC3)C(=O)N(CC)[C@H](C(=O)N(C)C)CC(=O)N(C)[C@@H](CC(C)C)C(=O)N[C@@H]([C@@H](C)CC)C(=O)NCC(=O)N(C)[C@H]3C/C=C\CCN(C3=O)[C@@H](Cc3ccc(C(F)(F)F)cc3)C(=O)N(C)CC(=O)N[C@@H](CCc3cc(F)c(C(F)(F)F)c(F)c3)C(=O)N2C1` [PP1773], for which the “NRAS/KRAS (ratio of KD value for NRAS to KD value for KRAS)” value in test [1] (KD ratio) was “A (a compound having 10 or more and less than 20 is denoted as A)”. For the same molecule, the “HRAS/KRAS (ratio of KD value for HRAS to KD value for KRAS)” value in test [2] (KD ratio) is “A (a compound having 10 or more and less than 20 is denoted as A)”.
In the case of `CCCN(C)C(=O)[C@@H]1CC(=O)N(C)[C@@H](CC)C(=O)N[C@@H]([C@@H](C)CC)C(=O)N(C)CC(=O)N(C)[C@H]2C/C=C\CCN(C2=O)[C@@H](Cc2ccc(C(F)(F)F)cc2)C(=O)N(C)CC(=O)N[C@@H](CCc2cc(F)c(C(F)(F)F)c(F)c2)C(=O)N2C[C@H](OCC)C[C@H]2C(=O)NC2(CC(F)(F)C2)C(=O)N(C)[C@@H](C2CCCC2)C(=O)N1C` [PP1732], the “NRAS/KRAS (ratio of KD value for NRAS to KD value for KRAS)” value in test [1] (KD ratio) is recorded as “AA (a compound having 20 or more is denoted as AA)”. Besides, the “HRAS/KRAS (ratio of KD value for HRAS to KD value for KRAS)” value in test [2] (KD ratio) was “A (a compound having 10 or more and less than 20 is denoted as A)”.
